# Data reported in a melting point compilation (Tetko et al.; mined from patent text by program, amines drawn as free bases though some values may be those of a salt).
row,melting point,Structure (SMILES)
1,156 to 158 °C,Cc1ccc(-c2c(NS(=O)(=O)c3ccc(C(C)(C)COc4ncc(Br)cn4)cc3)ncnc2OCCOc2ncc(Br)cn2)cc1
2,242 to 244 °C,COc1ccc(C=C2NC(=O)NC2=O)cc1OCc1ccccc1
3,105 to 106 °C,CC(C)(C)SC1CN(C(=O)NCCN2C(=O)c3ccccc3C2=O)CC1NS(=O)(=O)c1ccc(Oc2ccccc2)cc1 (configuration not stated)
4,120 to 121 °C,Oc1ccc2c(c1CNc1ccc(F)cc1F)CCCO2
5,136 to 137 °C,CC(=O)c1c(N=Cc2ccccc2)c(-c2ccccc2)n(Cc2ccc(Cl)cc2)c1C
6,224 to 225 °C,O=C1NC(=O)C(=Cc2ccc(S(=O)(=O)CCCc3ccccc3)cc2)S1
7,160 to 162 °C,CC1CCC(Nc2ccccc2)c2nccc(=O)n21 (configuration not stated)
8,94 °C,CCCCc1nnc(-c2ccc(OC)cc2)n1-c1ccc(OC)cc1
9,121 °C,CCCCOc1cc(/C=C(\OCC)C(=O)O)ccc1OCCc1ccc(N(C)C(C)=O)cc1
10,233 to 234 °C,O=[N+]([O-])c1ccc(S(=O)(=O)n2c3cc(O)c(O)cc3c3ccc(O)c(O)c32)cc1
11,149 °C,CCCC1CCC(c2ccc(-c3ccc(N=C=S)cc3)cc2)CC1 (configuration not stated)
12,37 °C,CCCCc1ccc(OC(=O)c2ccc(-c3ccc(CC(CC)CCCC)cc3)cc2)c(C#N)c1 (configuration not stated)
13,145 to 147 °C,c1cc2cc(CSc3nnc(-c4ccc5c(c4)CCO5)o3)ccc2o1
14,60 °C,OC1c2cc(OCc3ccc4ccccc4n3)ccc2OCC1Cc1c[nH]c2ccccc12 (configuration not stated)

# Continued, compound first:
row,Structure (SMILES),melting point
1,COC(=O)c1ccc(COC(=O)Nc2ccc(-c3ccccc3)n(CC(=O)NC(Cc3ccccc3)C(=O)C(F)(F)F)c2=O)cc1 (configuration not stated),186 to 189 °C
2,CN1C(=O)Cn2c1nc(C(=O)O)c(OCc1ccccc1)c2=O,194 °C
3,CCC(COC)NC(=O)C(Cc1ccc(OCc2ccccc2)cc1)NC(=O)C(CC(C)C)N(C)CCC(C)C (configuration not stated),83 to 85 °C
4,Nc1cc2c3c(cc(N)cc3c1)C(=O)N(O)C2=O,329 to 336 °C
5,Cc1cc(C)nc(NC(=O)C(N)Cc2ccccc2)c1 (configuration not stated),97 °C
6,O=C1C(=CO)C(c2ccccc2[N+](=O)[O-])=NN1c1ccc(Cl)cc1,155 to 157 °C
7,CC(C)c1cccc(NC(=O)c2ccccc2[N+](=O)[O-])c1,65.5 to 68.5 °C
8,COc1cc(N2C(=O)c3ccccc3C2=O)c2nc(Cl)cc(C)c2c1Oc1cccc(C(F)(F)F)c1,225 to 227 °C
9,N=c1c2sc(=S)n(-c3ccccc3)c2ncn1NC(=O)c1ccco1,228 °C
10,Cc1ccccc1C(=O)CCc1c(C(=O)N2CCCC2)cc2c(nc(C)n2C)c1O,216 to 217 °C
11,CCOC(=O)c1ccc(F)c([N+](=O)[O-])c1,50 °C
12,CCOC(=O)CCc1cn(-c2ccc(N)cn2)nc1C(C)C,75 to 76 °C
13,OC(Cc1ccc(Cl)cc1)Cn1cncn1 (configuration not stated),104 to 106 °C
14,Oc1ccc2c(c1)ncn2-c1ccc2cccc(Cl)c2n1,> 250 °C
15,Cc1nc(OCCCCn2cncn2)c([N+](=O)[O-])c(N2CCc3ccccc3CC2)n1,88 to 91 °C
16,CC1(O)C=CC2C3CCC4=CC(=O)CCC4C3C(c3ccc(-c4cccnc4)cc3)CC21C (configuration not stated),159 °C
17,Cc1sc(C(=O)O)cc1CC#N,196 to 198 °C
18,CCCCCCCCCCCCCCCCCCOc1ccc(OCCCOc2ccc(OCc3ccccc3)cc2)c(C(=O)OC)c1,79 to 81 °C
19,COC[C@H]1CN(c2ccc(CCC[C@@H](C)O)cc2)C(=O)O1,65 °C
20,O=C1CNc2ncc(-c3cccnc3)cc2N1Cc1ccccc1,58 °C
21,O=C1NCNCC1(c1ccccc1)c1ccccn1 (configuration not stated),201 to 203 °C
22,C=CCc1cc(C(C)=O)c(NC(C)=O)cc1O,172 to 174 °C
23,CCOc1sc(C(=O)N2CCCC2)c2c1-c1oncc1C(C)(C)C2,123 to 126 °C
